One test concerns the target T1, ORAI1 (Homo sapiens, UniProt Q96D31).
T1 construct: host or cells: Jurkat T-lymphocytes (electroporation)
In words: Live cell Ca2+ imaging of G-GECO1.2-ORAI1 transfected Jurkat T cells. The note with it: 10 μM. It is filed as cell-based. As for the experimental part: 12.5 ∗ 10^6 Jurkat T–lymphocytes were pelleted at 400 to 450 ×g for 5 min at room temperature and pellets were dissolved in 500 μl RPMI 1640 medium (Gibco) without phenol red containing L-glutamine, supplemented with 7.5% (v/v) NCS. 30 μg plasmid-DNA (G-GECO1.2-ORAI1) was transferred into a 4 mm electroporation cuvette (Biozym, Austria) and the Jurkat T-lymphocytes were added. G-GECO1.2-ORAI1 was a gift from Michael Cahalan, USA (Addgene plasmid # 73562). After an incubation of 5 min at 37 °C, cells were electroporated with 960 μF and 240 V (τ: […]). […]
17 to 22 h after electroporation, 5 ∗ 10^4 cells were pelleted at 400–450 ×g for 5 min at room temperature and cell pellets were dissolved in 50 μl nominal Ca^2+ free buffer. […] The fluorophore was excited at 488 nm every 2 s for 30 min and fluorescence was measured at 520 nm using Volocity (Version 6.3, Perkin Elmer).
Using ImageJ (Version 1.51 k, National Institutes of Health, USA) the pictures were analyzed for mean fluorescence in the outer ring of Jurkat T-lymphocytes employing ring-shaped regions of interest (ROIs). […] The mean background fluorescence values were subtracted from the signal in every image. For quantitative analysis, fluorescence intensities were normalized to the first fluorescence intensity (F/F0).

A further test relates to IP3 receptors. In words: IP3-evoked Ca2+ release in permeabilized Jurkat T cells. It is filed as cell-based, human. The note with it: 2 μM IP3. As to the method:
(§1) 3 ∗ 10^7 Jurkat T-lymphocytes per measurement were centrifuged at 450 ×g for 5 min at room temperature. The pellet was rinsed twice, each time using 10 ml permeabilization buffer 1 (120 mM KCl, 10 mM NaCl, 1.2 mM MgCl2, 0.533 mM CaCl2, 1 mM EGTA and 10 mM HEPES, pH 7.2 (KOH), sterile filtered). Subsequently, the pellet was resuspended in 2 ml permeabilization buffer 1 containing 80 μg/ml saponin (Fluka) and the cells were incubated for 10 min at 37 °C. Subsequently, the cells were centrifuged at 450 ×g for 5 min at room temperature and the cell pellet was washed once in 10 ml permeabilization buffer 2 (120 mM KCl, 10 mM NaCl, 1.2 mM MgCl2 and 10 mM HEPES, pH 7.2 (KOH), sterile filtered). Finally, the cells were taken up in 1 ml permeabilization buffer 2, placed into a cuvette and measured at the fluorescence spectrophotometer. Before the start of the measurement, 0.5 μl of 1 mM Fura2 free acid (dissolved in pure water, final concentration: 0.5 μM), 5 μl of 5 mg/ml creatinkinase (dissolved in permeabilization buffer 2, final concentration: 25 μg/ml, 20 U/ml, Roche) and 10 μl of 2 M creatin phosphate (dissolved in permeabilization buffer 2, final concentration: 20 mM, Calbiochem) were added. Fura2 was used to measure the Ca^2+ concentration and creatinkinase and creatin phosphate were used as ATP-regenerating system. The measurement was controlled by FL Solutions (Version 4.1, Hitachi High-Technologies Corporation). Fura2 was alternatively excited every 2 s at 340 ± 5 nm and 380 ± 5 nm, each 400 ms apart. Fluorescence intensity was measured at an emission wavelength of 495 ± 5 nm for both excitation wavelengths. […] Ca^2+ concentrations were calculated according to Grynkiewicz et al. as described earlier in Section 2.4.
(§2) As a quantitative read-out for inhibition of IP3 receptors, the peak [Ca^2+] after IP3 addition was subtracted from the mean [Ca^2+] between 25 and 75 s before IP3 addition (dPeak). […] The rate constant K of the fitted data was used as a quantitative read-out for SERCA pump activity and its inhibition.

The next test relates to SERCA pumps. In words: SERCA activity (ATP-induced Ca2+ reuptake) in permeabilized Jurkat T cells. It is filed as cell-based, human. As to the method: as §1, §2
The subject of another test is TMBP cells. In words: In vitro activation of TMBP cells by MBP, cytokine mRNA by qPCR. The test is classed as cell-based, rat. The note with it: TMBP cells + MBP; 6 h; qPCR; STX564 vs Synta66. As for the experimental part: Myelin basic protein (MBP)-reactive CD4^+ T cells retrovirally transduced to express enhanced GFP (TMBP cells) were established as previously reported. In brief, 6–8 week old female Lewis rats were immunized subcutaneously with 150 μl of emulsion consisting of equal parts of MBP (stock concentration: 1 mg/ml) and complete Freund's adjuvant containing heat-inactivated Mycobacterium tuberculosis extract (Difco; stock concentration: 2 mg/ml). Draining lymph nodes were harvested and passed through a cell strainer (40 μm) 9–10 days after immunization. The cell suspension was co-cultured with GP + E86 packaging cell lines producing replication-deficient retroviruses in the presence of 10 μg/ml MBP. Murine IL-2 was added to the culture for T cell expansion from day 2–4 after stimulation. The cell lines underwent 3–4 cycles of stimulation before being used for in vitro and in vivo experiments. […] Upon stimulation, they produced interferon-γ and IL-17.
In vitro activation assays were performed in 96-well plates. […]. TMBP cell activation on mRNA level was determined using qPCR and on surface protein level using surface marker staining and subsequent flow cytometry analysis.
Total RNA was isolated using the standard TRIzol method. cDNA was synthesized using the RevertAid First Strand cDNA Synthesis Kit (Thermo Fisher Scientific). Quantitative PCR (qPCR) was performed using the StepOnePlus™ Real-Time PCR System (Applied Biosystems), as previously described [[23], [24], [25]]. Rat TMBP cell data were obtained from three to four independent duplicate measurements. β-actin served as housekeeping gene. Human PBMC data were obtained from two independent healthy donors and duplicate measurements (representative data of one donor are shown). HPRT served as housekeeping gene. For all probes (TaqMan), a combination of 5′-FAM and 3′-TAMRA quencher was used as described.
(Quantitative PCR measures a nucleic acid by following its amplification.)

The test system of test [1] is alpha-dendrotoxin sensitive KV channels, likely KV1.1, KV1.2 and/or KV1.6. Particulars: 10 μM; ref Di Sabatino et al. [36]; cited from earlier work.
The subject of another test is KV1.3 channels. Details: method as in patent WO2005/009954A2 (compound 66). Particulars: ref patent WO2005/009954A2 (compound 66); cited from earlier work.

Molecules are shown by their SMILES. “Also recorded” adds a separate entry of the source.

This is an account of results in paper PMC8062851, “2-Methoxyestradiol and its derivatives inhibit store-operated Ca^2+ entry in T cells: Identification of a new and potent inhibitor” (Biochimica et Biophysica Acta. Molecular Cell Research, 2021).

T1 sequence (Q96D31 whole entry): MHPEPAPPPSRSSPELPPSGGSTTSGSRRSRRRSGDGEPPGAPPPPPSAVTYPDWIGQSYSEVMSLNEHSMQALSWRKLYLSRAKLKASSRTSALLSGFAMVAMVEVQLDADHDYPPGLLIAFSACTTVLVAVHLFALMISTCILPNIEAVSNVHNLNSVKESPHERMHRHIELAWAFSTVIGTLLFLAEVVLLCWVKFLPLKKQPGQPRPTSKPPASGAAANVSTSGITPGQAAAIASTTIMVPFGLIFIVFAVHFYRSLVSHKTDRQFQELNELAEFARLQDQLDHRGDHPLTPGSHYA

Turning to `COc1ccc(OC)c(-c2ccc(NC(=O)c3ccncc3F)cc2)c1` [Synta66], at ORAI1, the “SOCE by ORAI1 (G-GECO1.2-ORAI1 fluorescence)” value is listed as “almost completely diminished”. Further, in the test with IP3 receptors, the “effect on IP3-evoked Ca2+ release” value is listed as “Neither STX564 nor Synta66 affected IP3-evoked Ca^2+ release significantly; also recorded: did not inhibit the Ca^2+ release by IP3”. Further, the “effect on SERCA activity (initial slope of [Ca2+] upon ATP addition)” value in the test with SERCA pumps was “Neither STX564, Synta66 nor vehicle DMSO affected ATP-induced Ca^2+ reuptake by SERCA pumps; also recorded: neither STX564 nor Synta66 showed any effect”. Also, the “concentration at which interferon-γ expression was significantly antagonized” value in the test with TMBP cells was at least 10 µM. For the same compound, the “inhibition of alpha-dendrotoxin sensitive KV channels” value in test [1] is under 10%. Moreover, the “inhibition of KV1.3 channels” value with KV1.3 channels is recorded as “inhibits KV1.3 channels”.
